In paper PMC11742250, “Study on the absorption characteristics of euscaphic acid and tiliroside in fruits of Rosa laxa Retz” (PeerJ, 2025):

Experiments:
Assay type in all cases: in vitro ADME, human
[1] = tested on: Caco-2 cells; assay: Evaluation of the Caco-2 cell model with fluorescein sodium as marker (Papp, monolayer integrity); settings: Caco-2 monolayer, four repeated measurements
Procedure: The evaluation of the Caco-2 cell model primarily involves using fluorescein sodium as a marker. The cells are seeded in a 12-well cell plate (10^5 cells/well) and observed and photographed every two days under a fluorescence inverted microscope. The transepithelial electrical resistance (TEER) is measured using a resistance meter (Millipore Millicell ERS-2; Millipore Sigma, Darmstadt, Germany). […] Markers used for detection mainly include mannitol, inulin, and fluorescein sodium.

[2] = tested on: P-gp; assay: in vitro; settings: human, Caco-2, RB→A/A→B
Procedure: (§1) A precise amount of FRLE reserve solution is diluted to concentrations of 50, 100, and 150 μg/mL, representing the low, medium, and high concentrations of FRLE. Additionally, solutions are prepared containing 0.100 μmoL/mL Verapamil (Ver), 0.099 μmoL/mL Cyclosporine A (CsA), and 0.025 μmoL/mL EGTA at low, medium, and high concentrations for bidirectional transport.
(§2) Caco-2 cells are seeded at a density of 2.5 × 10^5 cells/mL, with 0.5 mL inoculated into each well of a Transwell® 12-well plate. After continuous culturing for 18 days, the cell model is established. Bidirectional transport experiments include AP→BL ([…], absorption transport) and BL→AP ([…], secretion transport).
(§3) Taking absorption transport as an example: 0.5 mL of drug-containing Hank’s Balanced Salt Solution (HBSS) solution is added to the apical (AP) side (supply side), while 1.5 mL of blank solution is added to the basolateral (BL) side (receiving side). At time points 15, 30, 60, 90, 120, 150, and 180 min, 200 µL is drawn from the BL side and simultaneously supplemented with 200 µL of HBSS buffer. The samples are then evaporated in a water bath, re-dissolved in methanol, and centrifuged at 12,000 rpm for 10 min. The supernatant is taken and assayed under the conditions described in “Establishment of the determination method for euscaphic acid and tiliroside”. The effects of different times, concentrations, inhibitors, chelating agents, and pH values on the absorption characteristics of euscaphic acid and tiliroside in FRLE are investigated. The secretion transport procedure is identical to the absorption transport ([Artursson & Karlsson, 1991]).
(§4) The side with the added blank solution is considered the receiving side, and the amount of drug in the receiving side is regarded as its absorption amount (Qr). In the A→B transport test, the amount of drug absorbed by the B-side chamber at any time point is denoted as (QrBi). In the B→A transport test, the amount of drug absorbed by the A-side chamber at any time point is (QrAi). The specific calculations are provided in the following formulas:
(§5) A-B transport: QrBi = 0.2 × (Cr1 + Cr2 + Λ + Cr(i-1)) + 1.5 × Cri
(§6) B-A transport: Qrdi = 0.2 × (Cr1 + Cr2 + Λ + Cr(i-1)) + 0.5 × Cdi
(§7) In the formula, 1.5 represents the volume of the test solution added to the B-side chamber (mL), 0.5 represents the volume of the test solution added to the A-side chamber (mL), and 0.2 is the volume of each sample taken (mL). Cri is the actual concentration in the receiving chamber at the i-th time point (μg/mL). The apparent permeability coefficient Papp (cm/s) is calculated using the following formula ([Lu et al., 2020]):
(§8) Papp=dQ/dt×1/A×C0 dQ/dt represents the amount of drug transported per unit of time (μg/s); A is the surface area of the 12-well Transwell® membrane (1.12 cm^2), and C0 is the initial concentration of the drug in the donor side ([…]) ([Qu et al., 2021]).
(§9) Exhaust ratio (RB-A/A-B)) is calculated using the following formula: RB−A/A−B=Papp(B−A)/Papp(A−B)

[3] = in vitro; settings: human
Procedure: as §1, §2, §3, §4, §5, §6, §7, §8, §9

[4] = tested on: Caco-2 cells; assay: in vitro
Procedure: as §1, §2, §3, §4, §5, §6, §7, §8, §9

Question: Which “Papp of fluorescein sodium” value [1] does the source give for `O=C([O-])c1ccccc1-c1c2ccc(=O)cc-2oc2cc([O-])ccc12.[Na+].[Na+]` [fluorescein sodium, Fluorescein sodium] here?
Answer: 4.06 ± 0.17 × 10^−7 cm/s

Question: What does the source list for `C[C@@H]1CC[C@]2(C(=O)O)CC[C@]3(C)C(=CC[C@@H]4[C@@]5(C)C[C@@H](O)[C@@H](O)C(C)(C)[C@@H]5CC[C@]43C)[C@@H]2[C@]1(C)O` [Euscaphic acid]?
Answer: efflux ratio at 180 min, 50 μg/mL [2]: 0.72 ± 0.01; efflux ratio at 180 min, 100 μg/mL [2]: 0.78 ± 0.06; efflux ratio at 180 min, 150 μg/mL [2]: 1.58 ± 0.01; Papp at 180 min ([3]; Caco-2): 0.754 to 26.9 ×10⁻⁶ cm/s; efflux ratio at 180 min, 50 μg/mL ([3]; Caco-2, RB→A/A→B): 0.88 ± 0.01; efflux ratio at 180 min, 100 μg/mL ([3]; Caco-2, RB→A/A→B): 0.86 ± 0.01; efflux ratio at 180 min, 150 μg/mL ([3]; Caco-2, RB→A/A→B): 1.38 ± 0.21; efflux ratio at 180 min ([3]; Caco-2, efflux ratio (RB→A/A→B)): < 1.5; efflux ratio at 180 min, 50 μg/mL ([3]; Caco-2, pH 5, RB→A/A→B): 1.16 ± 0.08; efflux ratio at 180 min, 150 μg/mL ([3]; Caco-2, pH 5, RB→A/A→B): 0.97 ± 0.06; efflux ratio at 180 min, 50 μg/mL ([3]; Caco-2, pH 6, RB→A/A→B): 0.95 ± 0.05; efflux ratio at 180 min, 100 μg/mL ([3]; Caco-2, pH 6, RB→A/A→B): 1.19 ± 0.02; efflux ratio at 180 min, 150 μg/mL ([3]; Caco-2, pH 6, RB→A/A→B): 1.03 ± 0.09; efflux ratio at 180 min ([3]; Caco-2, pH 6, RB→A/A→B value): ~1; efflux ratio at 180 min, 50 μg/mL ([3]; Caco-2, pH 8, RB→A/A→B): 1.12 ± 0.03; efflux ratio at 180 min, 150 μg/mL ([3]; Caco-2, pH 8, RB→A/A→B): 0.91 ± 0.05; efflux ratio at 180 min, 50 μg/mL ([3]; Caco-2, pH 9, RB→A/A→B): 1.08 ± 0.03; P-gp substrate status ([4]; Caco-2): substrates of P-gp; absorption category from Papp ([4]; Caco-2): good absorption; transport mechanism ([4]; Caco-2): passive diffusion; transport of euscaphic acid over time (Fig. 5M-O) ([4]; human, Caco-2, 15 min, 50 μg/mL, pH 9): 0.08; absorption amount (Qr) ([4]; human, Caco-2, 120 min, 50 μg/mL): 4.56; transport of euscaphic acid over time (Fig. 5M-O) ([4]; human, Caco-2, 150 min, 50 µg/mL, pH 9): 0.45; Papp ([4]; human, Caco-2, 180 min): greater than 10^−6; RB→A/A→B ratios, range over all conditions ([4]; human, Caco-2, 180 min): 0.72-1.58; RB→A/A→B ([4]; human, Caco-2, 180 min, 100 μg/mL, pH 5): 1.16 ± 0.03; RB→A/A→B ([4]; human, Caco-2, 180 min, 100 μg/mL, pH 8): 0.95 ± 0.02; RB→A/A→B ([4]; human, Caco-2, 180 min, 100 μg/mL, pH 9): 1.16 ± 0.04; RB→A/A→B ([4]; human, Caco-2, 180 min, 150 μg/mL, pH 9): 1.14 ± 0.01
